Source: patent publication US20150291598A1 (NOVARTIS AG, priority 2012, published 2015)

Test system: P. falciparum (NF54 or 3D7 strain)
Experiment: Assay for P. falciparum proliferation in infected human blood cells (SYBR Green)
Assay type: cell-based, Plasmodium falciparum
Conditions: Plasmodium falciparum, 3D7|NF54, Erythrocyte, in Homo sapiens, 72 h, NF54 or 3D7 infected human erythrocytes, 72 hours; read-out: EC50 (nM), inhibitory efficacy in delaying P. falciparum proliferation in infected human blood cells
Procedure: Assay for P. falciparum Proliferation in Infected Human Blood Cells
Compounds of the invention can be assayed to measure their capacity to inhibit proliferation of P. falciparum parasitemia in infected red blood cells. This parasite proliferation assay measures the increase in parasite DNA content using a DNA intercalating dye, SYBR Green® (INVITROGEN®) which has a high affinity for double stranded DNA.
NF54 or 3D7 P. falciparum strain is grown in complete culturing media until parasitemia reaches 3% to 8% with O+ human erythrocytes. […] 20 μl of screening media is dispensed into 384 well assay plates. 50 nl of compounds of the invention (in DMSO), including antimalarial controls (mefloquine, pyrimethamine and artemisinin), are then transferred into the assay plates, as well as DMSO alone to serve as a negative control for inhibition. Then 30 μl of a suspension of a NF54 or 3D7 P. falciparum infected erythrocytes in screening media is dispensed into the assay plates such that the final hematocrit is 2.5% with a final parasitemia of 0.3%. The plates are placed in a 37° C. incubator for 72 hours in a low oxygen environment containing 93% N2, 4% CO2, and 3% O2 gas mixture. 10 μl of lysis buffer (saponin, triton-X, EDTA) containing a 10× solution of SYBR Green I® in RPMI media is dispensed into the plates. The plates are lidded and kept at room temperature overnight for the lysis of the infected red blood cells. The fluorescence intensity is measured (excitation […], emission 530 nm) using the Envision™ system (Perkin Elmer).

How did the EC50 turn out when `CN(C(=O)c1cn2c(-c3cc4cc(C#N)ccc4[nH]3)cnc2cn1)c1ccc(C#N)cc1` [Compound 252] was run?
The EC50 was greater than 8280 nM.

Same assay, conditions: Plasmodium falciparum, Erythrocyte, 72 h, NF54 or 3D7 infected human erythrocytes, 72 hours; read-out: EC50 (nM), inhibitory efficacy in delaying P. falciparum proliferation in infected human blood cells

With `NC(=O)c1nc[nH]c1NC(=O)c1cn2c(-c3ccc(C(F)(F)F)cc3)cnc2cn1` [Compound 404, 5-C-3-[4-(trifluoromethyl)phenyl]imidazo[1,2-a]pyrazine-6-1H-imidazole-4,5-dicarboxamide] as the compound, how does the EC50 read?
The EC50 was greater than 7570 nM.

`COC(=O)Nc1ccc(-c2cnc3cnc(CN(C)c4ccc(C#N)cc4)cn23)cc1` [Compound 225, methyl N-[4-(6-{[(4-cyanophenyl)(methyl)amino]methyl}imidazo[1,2-a]pyrazin-3-yl)phenyl]carbamat] was tested. Which EC50 did it give?
Its EC50 is 37 nM.

How did the EC50 turn out when `CN(C(=O)c1cn2c(-c3ccc(C(C)(C)C#N)cc3)cnc2cn1)c1ccc(C#N)cc1` [Compound 120, -[4-(1-cyano-1-methylethyl)phenyl]-N-(4-cyanophenyl)-N-methylimidazo[1,2-a]pyrazine-6-carboxamide] was run?
The EC50 was 147 nM.

With `Cc1ccncc1N(C)C(=O)c1cn2c(-c3ccc(C(F)(F)F)cc3)cnc2cn1` [Compound 309, N-methyl-N-(4-methylpyridin-3-yl)-3-[4-(trifluoromethyl)phenyl]imidazo[1,2-a]pyrazine-6-carboxamide] as the compound, how does the EC50 read?
The EC50 was 611 nM.

With `CN(C(=O)c1cn2c(-c3ccc(C(F)(F)F)cc3)cnc2cn1)c1ccccc1OC(F)F` [Compound 346, N-[2-(difluoromethoxy)phenyl]-N-methyl-3-[4-(trifluoromethyl)phenyl]imidazo[1,2-a]pyrazine-6-carboxamide] as the compound, how does the EC50 read?
Its EC50 is 242 nM.

How did the EC50 turn out when `CN(C(=O)c1cn2c(-c3ccc(C(F)(F)F)cc3)cnc2cn1)c1ccc(F)c(F)c1` [Compound 105, N-(3,4-difluorophenyl)-N-methyl-3-[4-(trifluoromethyl)phenyl]imidazo[1,2-a]pyrazine-6-carboxamide] was run?
Its EC50 is 41 nM.

How did the EC50 turn out when `CN(C(=O)c1cn2c(-c3cn[nH]c3)cnc2cn1)c1ccc(C#N)cc1` [Compound 200, N-(4-cyanophenyl)-N-methyl-3-(1H-pyrazol-4-yl)imidazo[1,2-a]pyrazine-6-carboxamide] was run?
The EC50 was greater than 10000 nM.

With `CN(C(=O)c1cn2c(-c3ccc4c(cnn4C)c3)cnc2cn1)c1ccc(Cl)nc1` [Compound 489, N-(6-chloropyridin-3-yl)-N-methyl-3-(1-methyl-1H-indazol-5-yl)imidazo[1,2-a]pyrazine-6-carboxamide] as the compound, how does the EC50 read?
Its EC50 is 522 nM.

For `CN(C(=O)c1cn2c(-c3ccc(C(F)(F)F)cc3F)cnc2cn1)c1ccc(C#N)cc1` [Compound 140, N-(4-cyanophenyl)-3-[2-fluoro-4-(trifluoromethyl)phenyl]-N-methylimidazo[1,2-a]pyrazine-6-carboxamide], which EC50 is on record?
The EC50 was 436 nM.

How did the EC50 turn out when `CN(C(=O)c1cn2c(-c3ccc(Cl)cc3)cnc2cn1)c1ccc(F)c(F)c1` [Compound 112, 3-(4-chlorophenyl)-N-(3,4-difluorophenyl)-N-methylimidazo[1,2-a]pyrazine-6-carboxamide] was run?
The EC50 was 103 nM.

How did the EC50 turn out when `CN(C(=O)c1cn2c(-c3cnc4c(c3)ncn4C)cnc2cn1)c1ccc(C#N)cc1` [Compound 203, N-(4-cyanophenyl)-N-methyl-3-{3-methyl-3H-imidazo[4,5-b]pyridin-6-yl}imidazo[1,2-a]pyrazine-6-carboxamide] was run?
The EC50 was 6490 nM.

Which EC50 does the source give for `CN(C(=O)c1cn2c(-c3ccncc3)cnc2cn1)c1ccc(C#N)cc1` [Compound 385, -(4-cyanophenyl)-N-methyl-3-(pyridin-4-yl)imidazo[1,2-a]pyrazine-6-carboxamide] here?
Its EC50 is greater than 10000 nM.

Which EC50 does the source give for `Cc1nc(C(=O)N2CCCc3cc(F)ccc32)cn2c(-c3ccc(C(F)(F)F)cc3)cnc12` [Compound 411, 6-fluoro-1-({8-methyl-3-[4-(trifluoromethyl)phenyl]imidazo[1,2-a]pyrazin-6-yl}carbonyl)-1,2,3,4-tetrahydroquinoline] here?
Its EC50 is greater than 7570 nM.

How did the EC50 turn out when `CNc1ccc(-c2cnc3cnc(C(=O)N(C)c4ccc(C#N)cc4)cn23)cc1` [Compound 117, N-(4-cyanophenyl)-N-methyl-3-[4-(methylamino)phenyl]imidazo[1,2-a]pyrazine-6-carboxamide] was run?
Its EC50 is 92 nM.

`CN(C(=O)c1cn2c(-c3ccc(NC(=O)C(N)C4CCC4)cc3)cnc2cn1)c1ccc(C#N)cc1` (centres unmarked) [Compound 270, 3-[4-(2-amino-2-cyclobutylacetamido)phenyl]-N-(4-cyanophenyl)-N-methylimidazo[1,2-a]pyrazine-6-carboxamide] was tested. Which EC50 did it give?
Its EC50 is 605 nM.

With `CN(C(=O)c1cn2c(-c3ccc(NC(=O)C(C)(C)N)cc3)cnc2cn1)c1ccc(C#N)cc1` [Compound 408, 3-[4-(2-amino-2-methylpropanamido)phenyl]-N-(4-cyanophenyl)-N-methylimidazo[1,2-a]pyrazine-6-carboxamide] as the compound, how does the EC50 read?
The EC50 was greater than 9300 nM.

With `CC(C)c1ccc(-c2cnc3cnc(C(=O)N(C)c4ccc(C#N)cc4)cn23)cc1` [Compound 115, N-(4-cyanophenyl)-N-methyl-3-[4-(propan-2-yl)phenyl]imidazo[1,2-a]pyrazine-6-carboxamide] as the compound, how does the EC50 read?
The EC50 was 82 nM.

For `COc1ccc(N(C)C(=O)c2cn3c(-c4ccc(C(F)(F)F)cc4)cnc3cn2)cc1` [Compound 139, N-(4-methoxyphenyl)-N-methyl-3-[4-(trifluoromethyl)phenyl]imidazo[1,2-a]pyrazine-6-carboxamide], which EC50 is on record?
Its EC50 is 1160 nM.

Which EC50 does the source give for `CN(C(=O)c1cn2c(-c3ccc(NS(C)(=O)=O)cc3)cnc2cn1)c1ccc(C#N)cc1` [Compound 314, N-(4-cyanophenyl)-3-(4-methanesulfonamidophenyl)-N-methylimidazo[1,2-a]pyrazine-6-carboxamide] here?
Its EC50 is 1040 nM.

`CON(C)C(=O)c1ccc(-c2cnc3cnc(C(=O)N(C)c4ccc(C#N)cc4)cn23)cc1` [Compound 185, N-(4-cyanophenyl)-3-{4-[methoxy(methyl)carbamoyl]phenyl}-N-methylimidazo[1,2-a]pyrazine-6-carboxamide] was tested. Which EC50 did it give?
Its EC50 is 7170 nM.

`CN(C(=O)c1cn2c(-c3ccc(C(F)(F)F)cc3)cnc2cn1)c1ccc2c(c1)nnn2C` [Compound 12, N-methyl-N-(1-methyl-1H-benzo[d][1,2,3]triazol-5-yl)-3-(4-(trifluoromethyl)phenyl)imidazo[1,2-a]pyrazine-6-carboxamide] was tested. Which EC50 did it give?
The EC50 was 4850 nM.

With `CN(C(=O)c1cn2c(-c3cc4ccccc4[nH]3)cnc2cn1)c1ccc(-c2cc3ccccc3[nH]2)nc1` [Compound 319, 3-(1H-indol-2-yl)-N-[6-(1H-indol-2-yl)pyridin-3-yl]-N-methylimidazo[1,2-a]pyrazine-6-carboxamide] as the compound, how does the EC50 read?
The EC50 was 3140 nM.

Which EC50 does the source give for `CN(C(=O)c1cn2c(-c3ccc(C(F)(F)F)cc3)cnc2cn1)c1cccc(Cl)c1` [Compound 35, N-(3-chlorophenyl)-N-methyl-3-[4-(trifluoromethyl)phenyl]imidazo[1,2-a]pyrazine-6-carboxamide] here?
Its EC50 is 462 nM.

`CN(C(=O)c1cn2c(-c3ccc(N)cc3)cnc2cn1)c1ccc(C#N)cc1` [Compound 124, 3-(4-aminophenyl)-N-(4-cyanophenyl)-N-methylimidazo[1,2-a]pyrazine-6-carboxamide] was tested. Which EC50 did it give?
Its EC50 is 217 nM.

`Cc1cc(N(C)C(=O)c2cn3c(-c4ccc(C(F)(F)F)cc4)cnc3cn2)cnc1Cl` [Compound 304, N-(6-chloro-5-methylpyridin-3-yl)-N-methyl-3-[4-(trifluoromethyl)phenyl]imidazo[1,2-a]pyrazine-6-carboxamide] was tested. Which EC50 did it give?
Its EC50 is 452 nM.

`CN(C(=O)c1cn2c(-c3ccc(OC(F)F)cc3)cnc2cn1)c1ccc(Cl)cc1` [Compound 102, N-(4-chlorophenyl)-3-[4-(difluoromethoxy)phenyl]-N-methylimidazo[1,2-a]pyrazine-6-carboxamide] was tested. Which EC50 did it give?
Its EC50 is 53 nM.

Which EC50 does the source give for `CN(C(=O)c1cn2c(-c3ccc(Cl)cc3C(F)(F)F)cnc2cn1)c1ccc(C#N)cc1` [Compound 179, 3-[4-chloro-2-(trifluoromethyl)phenyl]-N-(4-cyanophenyl)-N-methylimidazo[1,2-a]pyrazine-6-carboxamide] here?
Its EC50 is 4400 nM.

`CN(C(=O)c1cn2c(-c3ccc(OC(F)F)cc3)cnc2cn1)c1ccc(C#N)cc1` [Compound 214, N-(4-cyanophenyl)-3-[4-(difluoromethoxy)phenyl]-N-methylimidazo[1,2-a]pyrazine-6-carboxamide] was tested. Which EC50 did it give?
Its EC50 is 31 nM.

For `CN(C(=O)c1cn2c(-c3ccc(C(F)(F)F)cc3)cnc2cn1)c1ncc(Cl)cn1` [Compound 93, N-(5-chloropyrimidin-2-yl)-N-methyl-3-[4-(trifluoromethyl)phenyl]imidazo[1,2-a]pyrazine-6-carboxamide], which EC50 is on record?
The EC50 was 4640 nM.

For `CN(C(=O)c1cn2c(-c3ccc(C(F)(F)F)cc3)cnc2cn1)c1ccc(F)nc1` [Compound 79, N-(6-fluoropyridin-3-yl)-N-methyl-3-[4-(trifluoromethyl)phenyl]imidazo[1,2-a]pyrazine-6-carboxamide], which EC50 is on record?
Its EC50 is 214 nM.

Which EC50 does the source give for `CN(C(=O)c1cn2c(-c3ccc(-c4ccn[nH]4)cc3)cnc2cn1)c1ccc(Cl)nc1` [Compound 224, N-(6-chloropyridin-3-yl)-N-methyl-3-[4-(1H-pyrazol-5-yl)phenyl]imidazo[1,2-a]pyrazine-6-carboxamide] here?
Its EC50 is 149 nM.
